By melting point is commonly meant the temperature of the solid-liquid transition.

This note sets out measurements from US8536332B2, “Modulating signal transduction pathways with substituted pyridol [2,3-b] pyrazines” (Aeterna Zentaris GmbH, priority 2007, dated 2013).

Each structure is given as a SMILES string. Some results are limits rather than exact numbers.

On to `CNC(=O)Nc1cnc2ccc(-c3cc(Cl)c(O)c(Cl)c3)nc2n1` [Compound 557, 1-[6-(3,5-Dichloro-4-hydroxy-phenyl)-pyrido[2,3-b]pyrazin-3-yl]-3-methyl-urea], for which the melting point is 247 to 249 °C.

Molecule `C=CCNC(=S)Nc1ccc2ncc(Nc3cc(OC)c(OC)c(OC)c3)nc2n1` [Compound 693, 1-Allyl-3-[3-(3,4,5-trimethoxy-phenylamino)-pyrido[2,3-b]pyrazin-6-yl]-thiourea] came in with a melting point of 230 to 234 °C.

For `CCNC(=S)Nc1ccc2ncc(Nc3ccc(O)c([N+](=O)[O-])c3)nc2n1` [Compound 491, 1-Ethyl-3-[3-(4-hydroxy-3-nitro-phenylamino)-pyrido[2,3-b]pyrazin-6-yl]-thiourea], the melting point was found to be 250 °C.

In turn, `CCNC(=O)Nc1cnc2ccc(NCc3ccccc3)nc2n1` [Compound 239, 1-(6-Benzylamino-pyrido[2,3-b]pyrazin-3-yl)-3-ethyl-urea] came in with a melting point of 211 to 213 °C.

`O=C(Nc1cnc2ccc(-c3cc(Cl)c(O)c(Cl)c3)nc2n1)NC1CCCCCCC1` [Compound 556, 1-Cyclooctyl-3-[6-(3,5-dichloro-4-hydroxy-phenyl)-pyrido[2,3-b]pyrazin-3-yl]-urea]: the melting point was 261 to 263 °C.

Regarding `COc1cc(-c2ccc3ncc(NC(=S)NC4CCCCCCC4)nc3n2)ccc1O` [Compound 653, 1-Cyclooctyl-3-[6-(4-hydroxy-3-methoxy-phenyl)-pyrido[2,3-b]pyrazin-3-yl]-thiourea], the melting point fell in the range of 250 to 251 °C.

For the molecule `CCNC(=S)Nc1cnc2ccc(Nc3ccc(O)c(Cl)c3)nc2n1` [Compound 208, 1-[6-(3-Chloro-4-hydroxy-phenylamino)-pyrido[2,3-b]pyrazin-3-yl]-3-ethyl-thiourea], the melting point worked out at 203 °C.

`COc1cc(Nc2cnc3ccc(NC(=S)NCc4ccc(F)cc4)nc3n2)cc(OC)c1OC` [Compound 701, 1-(4-Fluoro-benzyl)-3-[3-(3,4,5-trimethoxy-phenylamino)-pyrido[2,3-b]pyrazin-6-yl]-thiourea]: the melting point stood at 255 °C.

In turn, `C=CCNC(=S)Nc1cnc2ccc(-c3ccc(O)c(OC)c3)nc2n1` [Compound 521, 1-Allyl-3-[6-(4-hydroxy-3-methoxy-phenyl)-pyrido[2,3-b]pyrazin-3-yl]-thiourea] had a melting point of 261 to 262 °C.

As for `COc1ccc(-c2ccc3ncc(NC(=O)NC(C)(C)C)nc3n2)cc1OC` [Compound 568, 1-tert-Butyl-3-[6-(3,4-dimethoxy-phenyl)-pyrido[2,3-b]pyrazin-3-yl]-urea], the melting point was 230 to 233 °C.

In turn, `COc1cc(-c2ccc3ncc(NC(=O)Nc4cccnc4)nc3n2)ccc1O` [Compound 611, 1-[6-(4-Hydroxy-3-methoxy-phenyl)-pyrido[2,3-b]pyrazin-3-yl]-3-pyridin-3-yl-urea] showed a melting point of 245 to 248 °C.

`CCNC(=O)Nc1cnc2ccc(N3CCN(C)CC3)nc2n1` [Compound 227, 1-Ethyl-3-[6-(4-methyl-piperazin-1-yl)-pyrido[2,3-b]pyrazin-3-yl]-urea] registered a melting point of 214 to 216 °C.

For `COc1cc(-c2ccc3ncc(NC(=O)Nc4ccc(C#N)cc4)nc3n2)ccc1O` [Compound 626, 1-(4-Cyano-phenyl)-3-[6-(4-hydroxy-3-methoxy-phenyl)-pyrido[2,3-b]pyrazin-3-yl]-urea], the melting point was 259 to 261 °C.

For `CCNC(=O)Nc1ccc2ncc(-c3ccc(N(c4ccccc4)c4ccccc4)cc3)nc2n1` [Compound 128, 1-[3-(4-Diphenylamino-phenyl)-pyrido[2,3-b]pyrazin-6-yl]-3-ethyl-urea], the melting point fell in the range of 269 to 273 °C.

With `CCNC(=S)Nc1ccc2ncc(N(C)c3cc(OC)c(OC)c(OC)c3)nc2n1` [Compound 706, 1-Ethyl-3-{3-[methyl-(3,4,5-trimethoxy-phenyl)-amino]-pyrido[2,3-b]pyrazin-6-yl}-thiourea], the melting point was 222 °C.

For `COc1cc(Nc2cnc3ccc(NC(=S)NCCCc4ccccc4)nc3n2)cc(OC)c1OC` [Compound 704, 1-(3-Phenyl-propyl)-3-[3-(3,4,5-trimethoxy-phenylamino)-pyrido[2,3-b]pyrazin-6-yl]-thiourea], the melting point fell in the range of 195 to 198 °C.

For the molecule `CCN(CC)C(=O)Nc1cnc2ccc(-c3ccc(O)c(OC)c3)nc2n1` [Compound 632, 1,1-Diethyl-3-[6-(4-hydroxy-3-methoxy-phenyl)-pyrido[2,3-b]pyrazin-3-yl]-urea], the melting point was 214 to 216 °C.

As for `O=C(Nc1ccccc1)Nc1cnc2ccc(Nc3ccccc3)nc2n1` [Compound 14, 1-Phenyl-3-(6-phenylamino-pyrido[2,3-b]pyrazin-3-yl)-urea], the melting point was found to be 251 °C.

`CCNC(=O)Nc1ccc2ncc(-c3cccc(Cl)c3F)nc2n1` [Compound 99, 1-[3-(3-Chloro-2-fluoro-phenyl)-pyrido[2,3-b]pyrazin-6-yl]-3-ethyl-urea] had a melting point of 275 °C.

In the case of `CCCNC(=O)Nc1cnc2ccc(-c3ccc(OC)c(OC)c3)nc2n1` [Compound 570, 1-[6-(3,4-Dimethoxy-phenyl)-pyrido[2,3-b]pyrazin-3-yl]-3-propyl-urea], the melting point lay within 246 to 248 °C.

Take `CCNC(=S)Nc1ccc2ncc(Nc3cc(Cl)cc(Cl)c3)nc2n1` [Compound 443, 1-[3-(3,5-Dichloro-phenylamino)-pyrido[2,3-b]pyrazin-6-yl]-3-ethyl-thiourea]: the melting point was 270 °C.

Molecule `CCNC(=S)Nc1ccc2ncc(Nc3cccc(Cl)c3)nc2n1` [Compound 329, 1-[3-(3-Chloro-phenylamino)-pyrido[2,3-b]pyrazin-6-yl]-3-ethyl-thiourea] registered a melting point above 220 °C.

For `CCNC(=O)Nc1ccc2ncc(-c3ccccc3F)nc2n1` [Compound 103, 1-Ethyl-3-[3-(2-fluoro-phenyl)-pyrido[2,3-b]pyrazin-6-yl]-urea], the melting point fell in the range of 226 to 228 °C.

Consider `CCNC(=O)Nc1ccc2ncc(-c3cccc(Br)c3OC(C)C)nc2n1` [Compound 67, 1-[3-(3-Bromo-2-isopropoxy-phenyl)-pyrido[2,3-b]pyrazin-6-yl]-3-ethyl-urea], for which the melting point fell in the range of 200 to 202 °C.

Regarding `CCCCCCNC(=O)Nc1cnc2ccc(-c3ccc(O)c(OC)c3)nc2n1` [Compound 627, 1-Hexyl-3-[6-(4-hydroxy-3-methoxy-phenyl)-pyrido[2,3-b]pyrazin-3-yl]-urea], the melting point was 234 to 235 °C.

Turning to `COc1cc(-c2ccc3ncc(NC(=O)N[C@@H]4C[C@H]4c4ccccc4)nc3n2)ccc1O` [Compound 603, 1-[6-(4-Hydroxy-3-methoxy-phenyl)-pyrido[2,3-b]pyrazin-3-yl]-3-((1R,2S)-2-phenyl-cyclopropyl)-urea], the melting point lay in the range of 233 to 236 °C.

`COc1ccc(-c2ccc3ncc(NC(=O)NC4CCN(C(=O)C(F)(F)F)CC4)nc3n2)cc1OC` [Compound 581, 1-[6-(3,4-Dimethoxy-phenyl)-pyrido[2,3-b]pyrazin-3-yl]-3-[1-(2,2,2-trifluoro-acetyl)-piperidin-4-yl]-urea]: the melting point was 239 to 242 °C.

As for `O=C(Nc1ccc(F)cc1)Nc1cnc2ccc(-c3cc(Cl)c(O)c(Cl)c3)nc2n1` [Compound 559, 1-[6-(3,5-Dichloro-4-hydroxy-phenyl)-pyrido[2,3-b]pyrazin-3-yl]-3-(4-fluoro-phenyl)-urea], the melting point lay within 289 to 291 °C.
